Laboratory results taken from BigSolDB 2.1.

For `O=S(=O)(c1ccc(O)cc1)c1ccccc1O`, the solubility (mole fraction) (in 1,4-dioxane, 278.15 K) was 0.0184, the solubility (mole fraction) (in 1,4-dioxane, 280.65 K) was 0.0213 and the solubility (mole fraction) (in 1,4-dioxane, 283.15 K) was 0.0242. For the same compound, the solubility (mole fraction) (in 1,4-dioxane, 285.65 K) was 0.0272, the solubility (mole fraction) (in 1,4-dioxane, 288.15 K) was 0.0303 and the solubility (mole fraction) (in 1,4-dioxane, 290.65 K) was 0.0338. For the same compound, the solubility (mole fraction) (in 1,4-dioxane, 293.15 K) was 0.0376, the solubility (mole fraction) (in 1,4-dioxane, 295.65 K) was 0.0415 and the solubility (mole fraction) (in 1,4-dioxane, 298.15 K) was 0.0465. The solubility (mole fraction) (in 1,4-dioxane, 300.65 K) was 0.0514, the solubility (mole fraction) (in 1,4-dioxane, 303.15 K) was 0.0557 and the solubility (mole fraction) (in 1,4-dioxane, 305.65 K) was 0.0611. It also gave a solubility (mole fraction) (in 1,4-dioxane, 308.15 K) of 0.0664, a solubility (mole fraction) (in 1,4-dioxane, 310.65 K) of 0.0713 and a solubility (mole fraction) (in 1,4-dioxane, 313.15 K) of 0.077. For the same compound, the solubility (mole fraction) (in 2-butanone, 278.15 K) was 0.101, the solubility (mole fraction) (in 2-butanone, 280.65 K) was 0.103 and the solubility (mole fraction) (in 2-butanone, 283.15 K) was 0.105. The solubility (mole fraction) (in 2-butanone, 285.65 K) was 0.107, the solubility (mole fraction) (in 2-butanone, 288.15 K) was 0.109 and the solubility (mole fraction) (in 2-butanone, 290.65 K) was 0.111. It also gave a solubility (mole fraction) (in 2-butanone, 293.15 K) of 0.113, a solubility (mole fraction) (in 2-butanone, 295.65 K) of 0.115 and a solubility (mole fraction) (in 2-butanone, 298.15 K) of 0.118. It also gave a solubility (mole fraction) (in 2-butanone, 300.65 K) of 0.12, a solubility (mole fraction) (in 2-butanone, 303.15 K) of 0.122 and a solubility (mole fraction) (in 2-butanone, 305.65 K) of 0.125. The solubility (mole fraction) (in 2-butanone, 308.15 K) was 0.127, the solubility (mole fraction) (in 2-butanone, 310.65 K) was 0.13 and the solubility (mole fraction) (in 2-butanone, 313.15 K) was 0.134. It also gave a solubility (mole fraction) (in acetone, 278.15 K) of 0.106, a solubility (mole fraction) (in acetone, 280.65 K) of 0.108 and a solubility (mole fraction) (in acetone, 283.15 K) of 0.11. It also gave a solubility (mole fraction) (in acetone, 285.65 K) of 0.112, a solubility (mole fraction) (in acetone, 288.15 K) of 0.115 and a solubility (mole fraction) (in acetone, 290.65 K) of 0.117. The solubility (mole fraction) (in acetone, 293.15 K) was 0.12, the solubility (mole fraction) (in acetone, 295.65 K) was 0.124 and the solubility (mole fraction) (in acetone, 298.15 K) was 0.127. For the same compound, the solubility (mole fraction) (in acetone, 300.65 K) was 0.13, the solubility (mole fraction) (in acetone, 303.15 K) was 0.133 and the solubility (mole fraction) (in acetone, 305.65 K) was 0.136. For the same compound, the solubility (mole fraction) (in acetone, 308.15 K) was 0.139, the solubility (mole fraction) (in acetone, 310.65 K) was 0.142 and the solubility (mole fraction) (in acetone, 313.15 K) was 0.146. For the same compound, the solubility (mole fraction) (in acetonitrile, 278.15 K) was 0.00974, the solubility (mole fraction) (in acetonitrile, 280.65 K) was 0.0109 and the solubility (mole fraction) (in acetonitrile, 283.15 K) was 0.0121. For the same compound, the solubility (mole fraction) (in acetonitrile, 285.65 K) was 0.0132, the solubility (mole fraction) (in acetonitrile, 288.15 K) was 0.0144 and the solubility (mole fraction) (in acetonitrile, 290.65 K) was 0.0156. It also gave a solubility (mole fraction) (in acetonitrile, 293.15 K) of 0.0169, a solubility (mole fraction) (in acetonitrile, 295.65 K) of 0.0179 and a solubility (mole fraction) (in acetonitrile, 298.15 K) of 0.0192. It also gave a solubility (mole fraction) (in acetonitrile, 300.65 K) of 0.0204, a solubility (mole fraction) (in acetonitrile, 303.15 K) of 0.0219 and a solubility (mole fraction) (in acetonitrile, 305.65 K) of 0.0236. For the same compound, the solubility (mole fraction) (in acetonitrile, 308.15 K) was 0.0252, the solubility (mole fraction) (in acetonitrile, 310.65 K) was 0.0271 and the solubility (mole fraction) (in acetonitrile, 313.15 K) was 0.0295. The solubility (mole fraction) (in ethanol, 278.15 K) was 0.0655, the solubility (mole fraction) (in ethanol, 280.65 K) was 0.0672 and the solubility (mole fraction) (in ethanol, 283.15 K) was 0.0689. The solubility (mole fraction) (in ethanol, 285.65 K) was 0.0706, the solubility (mole fraction) (in ethanol, 288.15 K) was 0.0725 and the solubility (mole fraction) (in ethanol, 290.65 K) was 0.0746. It also gave a solubility (mole fraction) (in ethanol, 293.15 K) of 0.0766, a solubility (mole fraction) (in ethanol, 295.65 K) of 0.0785 and a solubility (mole fraction) (in ethanol, 298.15 K) of 0.0805. It also gave a solubility (mole fraction) (in ethanol, 300.65 K) of 0.0827, a solubility (mole fraction) (in ethanol, 303.15 K) of 0.085 and a solubility (mole fraction) (in ethanol, 305.65 K) of 0.0872. It also gave a solubility (mole fraction) (in ethanol, 308.15 K) of 0.0898, a solubility (mole fraction) (in ethanol, 310.65 K) of 0.0928 and a solubility (mole fraction) (in ethanol, 313.15 K) of 0.0957. It also gave a solubility (mole fraction) (in ethyl acetate, 278.15 K) of 0.0386, a solubility (mole fraction) (in ethyl acetate, 280.65 K) of 0.0402 and a solubility (mole fraction) (in ethyl acetate, 283.15 K) of 0.0415. For the same compound, the solubility (mole fraction) (in ethyl acetate, 285.65 K) was 0.0432, the solubility (mole fraction) (in ethyl acetate, 288.15 K) was 0.0449 and the solubility (mole fraction) (in ethyl acetate, 290.65 K) was 0.0465. For the same compound, the solubility (mole fraction) (in ethyl acetate, 293.15 K) was 0.0482, the solubility (mole fraction) (in ethyl acetate, 295.65 K) was 0.0501 and the solubility (mole fraction) (in ethyl acetate, 298.15 K) was 0.052. For the same compound, the solubility (mole fraction) (in ethyl acetate, 300.65 K) was 0.054, the solubility (mole fraction) (in ethyl acetate, 303.15 K) was 0.0562 and the solubility (mole fraction) (in ethyl acetate, 305.65 K) was 0.0585. It also gave a solubility (mole fraction) (in ethyl acetate, 308.15 K) of 0.0609, a solubility (mole fraction) (in ethyl acetate, 310.65 K) of 0.0637 and a solubility (mole fraction) (in ethyl acetate, 313.15 K) of 0.0669. For the same compound, the solubility (mole fraction) (in isopropanol, 278.15 K) was 0.0656, the solubility (mole fraction) (in isopropanol, 280.65 K) was 0.068 and the solubility (mole fraction) (in isopropanol, 283.15 K) was 0.0708. The solubility (mole fraction) (in isopropanol, 285.65 K) was 0.074, the solubility (mole fraction) (in isopropanol, 288.15 K) was 0.0767 and the solubility (mole fraction) (in isopropanol, 290.65 K) was 0.0798. The solubility (mole fraction) (in isopropanol, 293.15 K) was 0.0825, the solubility (mole fraction) (in isopropanol, 295.65 K) was 0.0857 and the solubility (mole fraction) (in isopropanol, 298.15 K) was 0.089. It also gave a solubility (mole fraction) (in isopropanol, 300.65 K) of 0.0925, a solubility (mole fraction) (in isopropanol, 303.15 K) of 0.0963 and a solubility (mole fraction) (in isopropanol, 305.65 K) of 0.1. It also gave a solubility (mole fraction) (in isopropanol, 308.15 K) of 0.104, a solubility (mole fraction) (in isopropanol, 310.65 K) of 0.109 and a solubility (mole fraction) (in isopropanol, 313.15 K) of 0.113. For the same compound, the solubility (mole fraction) (in methanol, 278.15 K) was 0.0569, the solubility (mole fraction) (in methanol, 280.65 K) was 0.0583 and the solubility (mole fraction) (in methanol, 283.15 K) was 0.0597. It also gave a solubility (mole fraction) (in methanol, 285.65 K) of 0.0612, a solubility (mole fraction) (in methanol, 288.15 K) of 0.0627 and a solubility (mole fraction) (in methanol, 290.65 K) of 0.0643. For the same compound, the solubility (mole fraction) (in methanol, 293.15 K) was 0.0661, the solubility (mole fraction) (in methanol, 295.65 K) was 0.0677 and the solubility (mole fraction) (in methanol, 298.15 K) was 0.0696. The solubility (mole fraction) (in methanol, 300.65 K) was 0.0716, the solubility (mole fraction) (in methanol, 303.15 K) was 0.0739 and the solubility (mole fraction) (in methanol, 305.65 K) was 0.0763. The solubility (mole fraction) (in methanol, 308.15 K) was 0.0786, the solubility (mole fraction) (in methanol, 310.65 K) was 0.0809 and the solubility (mole fraction) (in methanol, 313.15 K) was 0.0838. It also gave a solubility (mole fraction) (in n-butanol, 278.15 K) of 0.0571, a solubility (mole fraction) (in n-butanol, 280.65 K) of 0.0584 and a solubility (mole fraction) (in n-butanol, 283.15 K) of 0.0597. The solubility (mole fraction) (in n-butanol, 285.65 K) was 0.0609, the solubility (mole fraction) (in n-butanol, 288.15 K) was 0.0621 and the solubility (mole fraction) (in n-butanol, 290.65 K) was 0.0634. It also gave a solubility (mole fraction) (in n-butanol, 293.15 K) of 0.0645, a solubility (mole fraction) (in n-butanol, 295.65 K) of 0.0658 and a solubility (mole fraction) (in n-butanol, 298.15 K) of 0.0671. It also gave a solubility (mole fraction) (in n-butanol, 300.65 K) of 0.0682, a solubility (mole fraction) (in n-butanol, 303.15 K) of 0.0694 and a solubility (mole fraction) (in n-butanol, 305.65 K) of 0.0707. The solubility (mole fraction) (in n-butanol, 308.15 K) was 0.0719, the solubility (mole fraction) (in n-butanol, 310.65 K) was 0.0734 and the solubility (mole fraction) (in n-butanol, 313.15 K) was 0.0751.
